According to BindingDB's records for patent US20240335431 (Acerta Pharma, 2024):

Biological target: T1, Menin (Homo sapiens, UniProt O00255)
T1 sequence (O00255 whole entry): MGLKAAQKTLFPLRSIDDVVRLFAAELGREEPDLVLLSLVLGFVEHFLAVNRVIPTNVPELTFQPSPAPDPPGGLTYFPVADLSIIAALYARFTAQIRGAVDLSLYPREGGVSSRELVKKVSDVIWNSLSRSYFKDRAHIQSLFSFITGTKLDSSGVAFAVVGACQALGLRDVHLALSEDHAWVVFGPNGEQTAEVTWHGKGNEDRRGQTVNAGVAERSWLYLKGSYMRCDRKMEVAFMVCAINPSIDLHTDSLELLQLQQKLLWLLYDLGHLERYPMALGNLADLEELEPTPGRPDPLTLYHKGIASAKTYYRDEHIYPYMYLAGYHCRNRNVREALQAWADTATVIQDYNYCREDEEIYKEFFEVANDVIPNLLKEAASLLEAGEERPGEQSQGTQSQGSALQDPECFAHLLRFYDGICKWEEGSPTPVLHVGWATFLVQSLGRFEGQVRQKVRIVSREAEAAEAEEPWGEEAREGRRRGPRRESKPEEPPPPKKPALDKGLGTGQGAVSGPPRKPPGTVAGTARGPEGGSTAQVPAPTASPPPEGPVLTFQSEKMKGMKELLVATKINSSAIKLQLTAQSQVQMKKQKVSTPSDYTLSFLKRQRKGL
Test: Fluorescence Polarization (FP) Assay
Method: Compounds were tested in a biochemical binding assay using Menin protein at 2 nM (N6his-tev-Menin_4i80, PB-20-1459) and the substrate cRho110-Ahx-MBM1/MBM2 peptide (UbiQ, UbiQ-Q20201030; cRh110-Ahx-[…]-QRVPALLLPPG-NH2) at 1 nM.384 Low volume black plates (Corning #4514) were used. 5 μL/well compound or 3% DMSO was added at 10-fold serial dilutions in DMSO from 10 μM. 5 μL/well cRho110-Ahx-MBM1/MBM2 peptide or binding buffer (50 mM Tris pH 7.5, 50 mM NaCl, 1 mM TCEP, 0.01% BGG, 0.01% Brij-35) was added to all wells. 5 μL/well Menin protein or binding buffer (50 mM Tris pH 7.5, 50 mM NaCl, 1 mM TCEP, 0.01% BGG, 0.01% Brij-35) was added to all wells. Plates were read on an EnVision plate reader (Perkin Elmer) with excitation at 480 nm and emission at 535 nm P+S, and measured every 5 minutes for 180 minutes.

CC(C)N(C(=O)c1cc(F)ccc1-n1cc(C(=O)[C@H]2CCN(C[C@H]3CC[C@H](NS(C)(=O)=O)CC3)C2)c2ccncc21)C(C)C [US20240335431, Example 1]
IC50: 0.029 µM

CC(C)c1ncsc1-c1cc(F)ccc1-n1cc(C(=O)C2CCN(C(=O)[C@H]3N[C@@H]4CC[C@H]3C4)CC2)c2ccncc21 [US20240335431, Example 42]
IC50: 0.009 µM

CCN(C(=O)c1cc(F)ccc1-n1c(C)c(C(=O)[C@@H]2CCN(C(=O)[C@@H]3CC[C@@H](C)N3)[C@@H](C)C2)c2ccncc21)C(C)C [US20240335431, Example 65]
IC50: 0.079 µM

CC(C)N(C(=O)c1cc(F)ccc1-n1cc(C(=O)C2CCN(C(=O)[C@H]3N[C@H]4C[C@@H]3[C@@H](F)C4)CC2)c2ccncc21)C(C)C [US20240335431, Example 22]
IC50: 0.025 µM

CCN(C(=O)c1cc(F)ccc1-n1cc(C(=O)C2CCN(C(=O)[C@H]3N[C@H]4C[C@@H]3[C@@H](F)C4)CC2)c2ccncc21)C(C)C [US20240335431, Example 30]
IC50: 0.017 µM

CC(C)N(C(=O)c1cc(F)ccc1-n1cc(C(=O)C2CCN(C(=O)[C@H]3NC[C@@H]4CC[C@@H]43)CC2)c2ccncc21)C(C)C (relative stereo) [US20240335431, Example 25]
IC50: 0.027 µM

C=C1C[C@@H]2CC[C@H]1[C@@H](C(=O)N1CCC(C(=O)c3cn(-c4ccc(F)cc4C(=O)N(C(C)C)C(C)C)c4cnccc34)CC1)N2 [US20240335431, Example 18]
IC50: 0.037 µM

C[C@@H]1CC[C@H](C)N1C(=O)c1cc(F)ccc1-n1cc(C(=O)C2CCN(C(=O)[C@H]3N[C@@H]4CC[C@H]3C4)CC2)c2ccncc21 [US20240335431, Example 32]
IC50: 0.036 µM

CC(C)N(C(=O)c1cc(F)ccc1-n1cc(C(=O)C2CCN(C(=O)[C@@H]3CCC4(CC4)N3)CC2)c2ccncc21)C(C)C [US20240335431, Example 24]
IC50: 0.019 µM

C[C@@H]1CCC[C@H](C)N1C(=O)c1cc(F)ccc1-n1cc(C(=O)C2CCN(C(=O)[C@H]3N[C@@H]4CC[C@H]3C4)CC2)c2ccncc21 [US20240335431, Example 33]
IC50: 0.037 µM

CCN(C(=O)c1cc(F)ccc1-n1c(C)c(C(=O)C2CCN(C(=O)[C@@H]3CCC(C)(C)N3)CC2)c2ccncc21)C(C)C (single isomer, unassigned) [US20240335431, Example 50-1]
IC50: 5.5 µM

CC(C)N(C(=O)c1cc(F)ccc1-n1cc(C(=O)C2CN(C(=O)[C@H]3N[C@@H]4CC[C@H]3C4)C2)c2ccnc(F)c21)C(C)C [US20240335431, Example 15]
IC50: 0.017 µM

CC(C)N(C(=O)c1cc(F)ccc1-n1cc(C(=O)[C@@H]2CCN(C(=O)[C@H]3N[C@@H]4CC[C@H]3C4)C2)c2ccncc21)C(C)C [US20240335431, Example 3]
IC50: 0.025 µM

CCN(C(=O)c1cc(F)ccc1-n1c(C)c(C(=O)[C@@H]2CCN(C(=O)[C@@H]3CC[C@H](C)N3)[C@@H](C)C2)c2ccncc21)C(C)C [US20240335431, Example 63]
IC50: 0.059 µM

O=C(c1cn(-c2ccc(F)cc2-c2cncnc2C2CC2)c2cnccc12)C1CCN(C(=O)[C@H]2N[C@@H]3CC[C@H]2C3)CC1 [US20240335431, Example 40]
IC50: 0.018 µM

Cc1c(C(=O)C2CCN(C(=O)[C@H]3NC[C@@H]4C[C@@H]43)CC2)c2ccncc2n1-c1ccc(F)cc1-c1cnccc1C(C)C [US20240335431, Example 54]
IC50: 0.015 µM

CC(C)c1ccccc1-c1cc(F)ccc1-n1cc(C(=O)C2CCN(C(=O)[C@H]3N[C@@H]4CC[C@H]3C4)CC2)c2ccncc21 [US20240335431, Example 39]
IC50: 0.007 µM

CC(C)(F)c1ncccc1-c1cc(F)ccc1-n1cc(C(=O)C2CN(C(=O)[C@H]3N[C@@H]4CC[C@H]3C4)C2)c2ccncc21 [US20240335431, Example 13]
IC50: 0.004 µM

CCN(C(=O)c1cc(F)ccc1-n1c(C)c(C(=O)C2CCN(C(=O)[C@H]3NC[C@@H]4C[C@@H]43)CC2)c2ccncc21)C(C)C [US20240335431, Example 47]
IC50: 0.015 µM

CC(C)N(C(=O)c1cc(F)ccc1-n1cc(C(=O)C2CCN(C(=O)[C@@H]3CCC(C)(C)N3)CC2)c2ccncc21)C(C)C [US20240335431, Example 27]
IC50: 0.025 µM

CC(C)N(C(=O)c1cc(F)ccc1-n1cc(C(=O)C2CN(C(=O)[C@H]3N[C@@H]4CC[C@H]3C4)C2)c2ccncc21)C(C)C [US20240335431, Example 5]
IC50: 0.018 µM

CC(C)N(C(=O)c1cc(F)ccc1-n1cc(C(=O)C2CCN(C(=O)[C@H]3N[C@@H]4CC[C@H]3C4)CC2)c2c(F)cncc21)C(C)C [US20240335431, Example 44]
IC50: 0.058 µM

CC(C)N(C(=O)c1cc(F)ccc1-n1cc(C(=O)C2CCN(C(=O)[C@@H]3CC4(CC4)CN3)CC2)c2ccncc21)C(C)C [US20240335431, Example 26]
IC50: 0.043 µM

CCN(C(=O)c1cc(F)ccc1-n1cc(C(=O)C2CN(C(=O)[C@H]3NC4CCC3CC4)C2)c2ccncc21)C(C)C [US20240335431, Example 9]
IC50: 0.051 µM

COCCN(C)CCC[C@H](C(C)C)N1CCC(C(=O)c2cn(-c3ccc(F)cc3C(=O)N(C(C)C)C(C)C)c3cnccc23)CC1 (racemic) [US20240335431, Example 23]
IC50: 0.007 µM

CCN(C(=O)c1cc(F)ccc1-n1cc(C(=O)C2CCN(C(=O)[C@H]3N[C@@H]4CC[C@H]3C4)CC2)c2ccncc21)C(C)C [US20240335431, Example 31]
IC50: 0.01 µM

CCN(C(=O)c1cc(F)ccc1-n1c(C)c(C(=O)C2CCN(C(=O)[C@@H]3CCC4(CC4)N3)CC2)c2ccncc21)C(C)C (single isomer, unassigned) [US20240335431, Example 49-1]
IC50: 2.14 µM

Cc1c(C(=O)C2CCN(C(=O)[C@H]3NC[C@@H]4C[C@@H]43)CC2)c2ccncc2n1-c1ccc(F)cc1C(=O)N(CC(F)(F)F)C(C)C (single isomer, unassigned) [US20240335431, Example 51-1]
IC50: 0.778 µM

CC(C)N(C(=O)c1cc(F)ccc1-n1cc(C(=O)C2CN(C(=O)[C@H]3N[C@H]4C[C@@H]3[C@@H](F)C4)C2)c2ccncc21)C(C)C [US20240335431, Example 7]
IC50: 0.024 µM

CC(C)N(C(=O)c1cc(F)ccc1-n1cc(C(=O)[C@H]2CCN(C(=O)[C@H]3N[C@@H]4CC[C@H]3C4)C2)c2ccncc21)C(C)C [US20240335431, Example 2]
IC50: 0.047 µM

CC(C)c1ccncc1-c1cc(F)ccc1-n1cc(C(=O)C2CCN(C(=O)[C@H]3N[C@@H]4CC[C@H]3C4)CC2)c2ccncc21 [US20240335431, Example 41]
IC50: 0.01 µM

CC(C)n1nccc1-c1cc(F)ccc1-n1cc(C(=O)C2CCN(C(=O)[C@H]3N[C@@H]4CC[C@H]3C4)CC2)c2ccncc21 [US20240335431, Example 36]
IC50: 0.024 µM

Cc1c(C(=O)C2CCN(C(=O)[C@H]3NC[C@@H]4C[C@@H]43)CC2)c2ccncc2n1-c1ccc(F)cc1C(=O)N(C(C)C)[C@H](C)C(F)(F)F (single isomer, unassigned) [US20240335431, Example 57-1]
IC50: 0.033 µM

CCN(C(=O)c1cc(F)ccc1-n1c(C)c(C(=O)[C@@H]2CCN(C(=O)[C@@H]3CCC4(CC4)N3)[C@@H](C)C2)c2ccncc21)C(C)C (single isomer, unassigned; form 2) [US20240335431, Example 52-2]
IC50: 0.018 µM

Cc1c(C(=O)[C@@H]2CCN(C(=O)[C@@H]3CC[C@H](C)N3)[C@@H](C)C2)c2ccncc2n1-c1ccc(F)cc1C(=O)N(C(C)C)C(C)C [US20240335431, Example 62]
IC50: 0.076 µM

CC(C)N(C(=O)c1cc(F)ccc1-n1cc(C(=O)C2CN(C(=O)[C@H]3N[C@@H]4CC[C@H]3C4)C2)c2ccnnc21)C(C)C [US20240335431, Example 14]
IC50: 0.139 µM

CC(C)N(C(=O)c1cc(F)ccc1-n1cc(C(=O)C2CCN(C(=O)[C@H]3N[C@@H]4CC[C@H]3C4)CC2)c2ccncc21)C(C)C [US20240335431, Example 16]
IC50: 0.021 µM

Cc1c(C(=O)C2CCN(C(=O)[C@@H]3CCC4(CC4)N3)CC2)c2ccncc2n1-c1ccc(F)cc1C(=O)N1[C@H](C)COC[C@H]1C (single isomer, unassigned) [US20240335431, Example 58-1]
IC50: 0.351 µM

CCN(C(=O)c1cc(F)ccc1-n1c(C)c(C(=O)[C@@H]2CCN(C(=O)[C@@H]3CCC4(CC4)N3)[C@@H](C)C2)c2ccncc21)C(C)C (single isomer, unassigned; form 1) [US20240335431, Example 52-1]
IC50: 0.016 µM

Cc1c(C(=O)[C@@H]2CCN(C(=O)[C@@H]3CC[C@@H](C)N3)[C@@H](C)C2)c2ccncc2n1-c1ccc(F)cc1C(=O)N(C(C)C)C(C)C [US20240335431, Example 64]
IC50: 0.084 µM

Cc1c(C(=O)C2CCN(C(=O)[C@@H]3CC[C@H](C)N3)CC2)c2ccncc2n1-c1ccc(F)cc1C(=O)N(C(C)C)C(C)C [US20240335431, Example 60]
IC50: 0.105 µM
